# Experimental data from patent US20250179047A1, “5-[7-(3,4-DIHYDRO-1H-ISOQUINOLINE-2-CARBONYL)-1,2,3,4 TETRAHYDROISOQUINOLIN-6-YL]-1H-PYRROLE-3-CARBOXAMIDE DERIVATIVES, PHARMACEUTICAL COMPOSITIONS CONTAINING THEM AND THEIR USES AS PRO-APOPTOTIC AGENTS” (LES LABORATOIRES SERVIER, priority 2022, published 2025).
# pKi: −log10 of the molar value. Like-named read-outs stand apart in the source and are kept apart here.
# Columns and labels:
# BCL2 D103Y = BCL2 D103Y (Homo sapiens, UniProt P10415, D103Y); assay: TR-FRET competitive binding assay, BCL2 D103Y; conditions: Ki determined from IC50, read-out: TR_FRET EKI_Bcl2 D103Y
# In short: (§1)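 Competitive TR-FRET displacement of fluorescein-PUMA peptide (2 or 20 nM) from 0.5 nM terbium-labelled N-terminal Halo-fusion BCL2 (1-207, wild type or mutant) or BCLXL (2-196), expressed in E. coli. Buffer 50 mM Hepes pH 7.5, 150 mM NaCl, 5% DMSO; 2 h at 23°C. 520/495 nm ratio fitted over 11 points for IC50, converted to Ki.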
# BCL2 G101V [1] = assay: TR-FRET competitive binding assay, BCL2 G101V; design: species or system human; conditions: for TR_FRET EKI G101V/WT selectivty ratio: ratio Ki BCL2 G101V / Ki BCL2 WT; for TR_FRET EKI G101V/WT selectivty: ratio of Ki BCL2 G101V to BCL2 WT
# In short: as §1
# BCL2 G101V [2] = target: BCL2 G101V (Homo sapiens, UniProt P10415, G101V); assay: TR-FRET competitive binding assay, BCL2 G101V; conditions: BCL2 G101V; Ki determined from IC50; read-out: TR_FRET EKI_Bcl2 G101V
# In short: as §1
# [3] = Pharmacokinetics in SCID mice; assay type: in vivo; conditions: 25 mg/kg IV bolus; for PK parameters Cinf: concentration at the end of bolus administration; for AUC: mouse, blood, area under curve over 24 h, read-out: PK parameters AUC24
# Procedure: (§2) Pharmacokinetic (PK) and platelet toxicity were investigated in SCID mice. Compounds were administered at 25 mg/kg by IV bolus, and formulated in PEG/Ethanol/NaCl 0.9% (40/10/50 v/v/v).
# (§3) Blood samples (3 animals/time point and 3 time points/animal) were collected over 24 h after dosing: 0.05 h, 0.5 h, 1 h, 3 h, 6 h and 24 h for PK and 6 h and 24 h for platelets.
# (§4) PK samples were analyzed by liquid chromatography using tandem mass spectrometry detection (LC-MS/MS) and platelet count (109/L) was measured using an hematology analyzer. Percentage of platelet loss was calculated at both time points (T+6 h and 24 h) as compared to a control group of 6 animals. PK parameters (Cinf and AUC24, which correspond to the concentration at the end of bolus administration and the area under curve over 24 h, respectively) were also determined using a non-compartmental analysis.
# KMS-12-PE Bcl-2 G101V = assay: In vitro cytotoxicity CellTiter-Glo 48 h, KMS-12-PE Bcl-2 G101V; assay type: cell-based; conditions: for Ratio (G101V/WT): C50 KMS-12-PE Bcl-2 G101V over C50 KMS-12-PE Bcl-2 WT; for IC50: Homo sapiens, KMS-12-PE, 48 h, CellTiter-Glo, C50 = concentration needed to reach 50% of the cellular viability
# In short: (§5)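 KMS-12-PE myeloma cells lentivirally transduced with Bcl-2 WT or G101V (TagRFP-sorted), exposed to compound 11-point dose-response for 48 h at 37 °C, 5% CO2. Viability read by CellTiter-Glo ATP luminescence; C50 is the concentration giving 50% cellular viability.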
# platelets = assay: Platelet depletion in SCID mice; assay type: in vivo; conditions: 25 mg/kg IV bolus, vs control group; for Platelet loss (%) 6 h: 6 h after dosing; for Platelet loss (%) 24 h: 24 h after dosing
# Procedure: as §2, §3, §4
# BCL2 WT = BCL2 WT (Homo sapiens (Human), UniProt P10415); assay: TR-FRET competitive binding assay, BCL2 WT
# In short: as §1
# KMS-12-PE Bcl-2 WT = assay: In vitro cytotoxicity CellTiter-Glo 48 h, KMS-12-PE Bcl-2 WT; assay type: cell-based; conditions: Homo sapiens, KMS-12-PE, C50 = concentration needed to reach 50% of the cellular viability
# In short: as §5
# BCLXL WT = BCLXL WT (Homo sapiens (Human), UniProt Q07817); assay: TR-FRET competitive binding assay, BCLXL WT; conditions: for pKi: BCLXL WT, Ki determined from IC50, read-out: TR_FRET EKI BclxL; for TR_FRET EKI BCLxL/WT selectivty ratio: ratio Ki BCLxL / Ki BCL2 WT; for TR_FRET EKI BCLxL/WT selectivty: ratio of Ki BCLxL to BCL2 WT
# BCLXL WT, sequence (Q07817 other isoform, or with tags, fused parts or gaps): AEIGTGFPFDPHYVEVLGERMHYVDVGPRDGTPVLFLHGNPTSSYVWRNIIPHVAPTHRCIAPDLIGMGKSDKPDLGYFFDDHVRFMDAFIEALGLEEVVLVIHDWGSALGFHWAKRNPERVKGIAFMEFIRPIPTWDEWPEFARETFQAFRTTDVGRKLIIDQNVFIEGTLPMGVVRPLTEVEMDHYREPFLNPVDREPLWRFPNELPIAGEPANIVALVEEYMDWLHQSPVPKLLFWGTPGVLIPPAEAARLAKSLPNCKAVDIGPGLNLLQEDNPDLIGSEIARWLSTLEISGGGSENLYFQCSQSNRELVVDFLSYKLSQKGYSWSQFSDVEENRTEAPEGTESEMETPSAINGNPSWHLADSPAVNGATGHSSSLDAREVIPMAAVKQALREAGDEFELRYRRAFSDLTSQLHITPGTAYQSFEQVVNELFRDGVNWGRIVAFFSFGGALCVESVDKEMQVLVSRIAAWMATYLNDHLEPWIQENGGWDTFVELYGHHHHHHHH
# In short: as §1
# BCL2 F104I = BCL2 F104I (Homo sapiens, UniProt P10415, F104I); assay: TR-FRET competitive binding assay, BCL2 F104I; conditions: Ki determined from IC50, read-out: TR_FRET EKI_Bcl2 F104I
# In short: as §1
# BCL2 D111A = BCL2 D111A (Homo sapiens, UniProt P10415, D111A); assay: TR-FRET competitive binding assay, BCL2 D111A; conditions: Ki determined from IC50, read-out: TR_FRET EKI_Bcl2 D111A
# In short: as §1
# [4] = Ki determined from IC50, read-out: TR_FRET EKI_Bcl2 WT
# [5] = Ki determined from IC50, read-out: TR_FRET EKI_Bcl2
SMILES,pKi (BCL2 D103Y),TR_FRET EKI G101V/WT selectivty ratio (BCL2 G101V [1]),pKi (BCL2 G101V [2]),PK parameters Cinf [3] [µM],AUC [3] [µM·h],Ratio (G101V/WT) (KMS-12-PE Bcl-2 G101V),IC50 (KMS-12-PE Bcl-2 G101V) [µM],Platelet loss (%) 6 h (platelets) [%],Platelet loss (%) 24 h (platelets) [%],pKi (BCL2 WT; [4]),IC50 (KMS-12-PE Bcl-2 WT) [µM],pKi (BCLXL WT),TR_FRET EKI BCLxL/WT selectivty ratio (BCLXL WT),pKi (BCL2 F104I),pKi (BCL2 D111A),TR_FRET EKI G101V/WT selectivty (BCL2 G101V [1]),pKi (BCL2 WT; [5]),TR_FRET EKI BCLxL/WT selectivty (BCLXL WT)
"Cc1c(N(C(=O)c2cc(-c3cc4c(cc3C(=O)N3Cc5ccccc5C[C@H]3C)CN(S(=O)(=O)Cc3ccccc3)CC4)n(C)c2C)c2ccc(O)cc2)cc(C#N)n1C [Example 14, 5-[2-benzylsulfonyl-7-[(3R)-3-methyl-3,4-dihydro-1H-isoquinoline-2-carbonyl]-3,4-dihydro-1H-isoquinolin-6-yl]-N-(5-cyano-1,2-dimethyl-pyrrol-3-yl)-N-(4-hydroxyphenyl)-1,2-dimethyl-pyrrole-3-carboxamide]",8.43,5.4,8.31,13.5,18.5,8.86,0.0852,16.1,12.5,9.05,0.0096,7.28,58.9,,,,,
"Cc1c(N(C(=O)c2cc(-c3cc4c(cc3C(=O)N3Cc5ccccc5C[C@H]3C)CN(C(=O)Cc3ccc(N5CCN(CC(F)(F)F)CC5)cc3)CC4)n(C)c2C)c2ccc(O)cc2)cc(C#N)n1C [Example 23, N-(5-cyano-1,2-dimethyl-1H-pyrrol-3-yl)-N-(4-hydroxyphenyl)-1,2-dimethyl-5-{7-[(3R)-3-methyl-1,2,3,4-tetrahydroisoquinoline-2-carbonyl]-2-(2-{4-[4-(2,2,2-trifluoroethyl)piperazin-1-yl]phenyl}acetyl)-1,2,3,4-tetrahydroisoquinolin-6-yl}-1H-pyrrole-3-carboxamide]",8.96,6.0,8.46,6.8,10.8,9.34,0.0898,19.6,12.8,9.24,0.0096,7.31,83.6,7.70,8.81,,,
"Cc1c(N(C(=O)c2cc(-c3cc4c(cc3C(=O)N3Cc5ccccc5C[C@H]3C)CN(C(=O)Cc3ccc(C5CCN(CCF)CC5)c(F)c3)CC4)n(C)c2C)c2ccc(O)cc2)cc(C#N)n1C [Example 28, N-(5-cyano-1,2-dimethylpyrrol-3-yl)-5-[2-(2-{3-fluoro-4-[1-(2-fluoroethyl)piperidin-4-yl]phenyl}acetyl)-7-{[(3R)-3-methyl-3,4-dihydro-1H-isoquinolin-2-yl]carbonyl}-3,4-dihydro-1H-isoquinolin-6-yl]-N-(4-hydroxyphenyl)-1,2-dimethylpyrrole-3-carboxamide]",9.47,4.8,8.92,18.2,38.3,6.51,0.0643,23.2,15.2,9.60,0.0099,8.25,22.4,8.19,9.23,,,
"Cc1c(N(C(=O)c2cc(-c3cc4c(cc3C(=O)N3Cc5ccccc5C[C@H]3CN3CCC(C)(C)C3)CN(C(=O)Cc3ccc(OCCN5CCOCC5)cc3F)CC4)n(C)c2C)c2ccc(O)cc2)cc(C#N)n1C [Example 146, N-(5-cyano-1,2-dimethylpyrrol-3-yl)-5-(7-{[(3S)-3-[(3,3-dimethylpyrrolidin-1-yl)methyl]-3,4-dihydro-1H-isoquinolin-2-yl]carbonyl}-2-(2-{2-fluoro-4-[2-(morpholin-4-yl)ethoxy]phenyl}acetyl)-3,4-dihydro-1H-isoquinolin-6-yl)-N-(4-hydroxyphenyl)-1,2-dimethylpyrrole-3-carboxamide]",9.92,7.2,9.52,,,5.8167,0.0349,,,10.40,0.006,8.46,81.4,9.57,9.82,,,
"Cc1c(N(C(=O)c2cc(-c3cc4c(cc3C(=O)N3Cc5ccccc5C[C@H]3CN3CCCCC3)CN(C(=O)Cc3ccc(OCCN5CCOCC5(C)C)cc3)CC4)n(C)c2C)c2ccc(O)cc2)cc(C#N)n1C [Example 148, N-(5-cyano-1,2-dimethylpyrrol-3-yl)-5-[2-(2-{4-[2-(3,3-dimethylmorpholin-4-yl)ethoxy]phenyl}acetyl)-7-{[(3S)-3-(piperidin-1-ylmethyl)-3,4-dihydro-1H-isoquinolin-2-yl]carbonyl}-3,4-dihydro-1H-isoquinolin-6-yl]-N-(4-hydroxyphenyl)-1,2-dimethylpyrrole-3-carboxamide]",9.74,4.2,9.52,,,4.9286,0.0345,,,10.22,0.007,8.82,25.0,9.54,9.82,,,
"Cc1c(N(C(=O)c2cc(-c3cc4c(cc3C(=O)N3Cc5ccccc5C[C@H]3CN(C(C)C)C(C)C)CN(C(=O)Cc3ccc(OCCN5CCOCC5)cc3F)CC4)n(C)c2C)c2ccc(O)cc2)cc(C#N)n1C [Example 152, N-(5-cyano-1,2-dimethylpyrrol-3-yl)-5-(7-{[(3S)-3-[(diisopropylamino)methyl]-3,4-dihydro-1H-isoquinolin-2-yl]carbonyl}-2-(2-{2-fluoro-4-[2-(morpholin-4-yl)ethoxy]phenyl}acetyl)-3,4-dihydro-1H-isoquinolin-6-yl)-N-(4-hydroxyphenyl)-1,2-dimethylpyrrole-3-carboxamide]",9.39,6.9,8.96,,,3.5238,0.037,,,9.80,0.0105,8.41,24.4,9.19,9.44,,,
"Cc1c(C(=O)N(c2ccc(O)cc2)c2cnn(C(F)F)c2)cc(-c2cc3c(cc2C(=O)N2Cc4ccccc4C[C@H]2C)CN(C(=O)Cc2ccc(OCCN4CCOCC4)cc2)CC3)n1C [Example 228, N-[1-(difluoromethyl)pyrazol-4-yl]-5-[2-[2-[4-(2-morpholinoethoxy)phenyl]acetyl]-7-[(3R)-3-methyl-3,4-dihydro-1H-isoquinoline-2-carbonyl]-3,4-dihydro-1H-isoquinolin-6-yl]-N-(4-hydroxyphenyl)-1,2-dimethyl-pyrrole-3-carboxamide]",9.68,,9.08,,,11.0,0.161,,,,0.0146,7.83,,8.80,9.70,14,10.22,248.3
Cc1c(N(C(=O)c2cc(-c3cc4c(cc3C(=O)N3Cc5ccccc5C[C@H]3CN3CCCCC3)CN(C(=O)Cc3ccc(OCCN5CCOCC5)cc3F)CC4)n(C)c2C)c2ccc(O)cc2)cc(C#N)n1C [Example 229],9.96,,9.66,,,4.4,0.0222,,,,0.00502,8.74,,9.79,10.00,5.5,10.40,45
